Results from ChEMBL document CHEMBL5137094, “Construction of Covalent Bisubstrate Inhibitor of Protein Kinase Reacting with Cysteine Residue at Substrate-Binding Site” (J Med Chem, 2022).
Active and inactive are the calls of the source. No cut-off for these calls is given here.

Experiments:
[1] = GSH reactivity in potassium phosphate buffer at pH 7.4 assessed as half life at 0.15 mM at 37 degreeC measured for 30 to 60 mins by HPLC-MS analysis; format: physicochemical; conditions: potassium phosphate buffer with GSH, time 30-60 min
[2] = target: T1, cAMP-dependent protein kinase catalytic subunit alpha (Homo sapiens, UniProt P17612); assay: Inhibition of ARC-1063 fluorescent probe binding to recombinant human PKAC-alpha incubated for 1 hr by time-gated luminescence intensity based displacement assay
[3] = target: T1, cAMP-dependent protein kinase catalytic subunit alpha; assay: Displacement of ARC-1063 fluorescent probe from recombinant human PKAC-alpha assessed as dissociation equilibrium constant preincubated for 1 hr followed by photoluminescent probe addition by time-gated luminescence intensity based assay
[4] = target: T1, cAMP-dependent protein kinase catalytic subunit alpha; assay: Displacement of ARC-1063 fluorescent probe from recombinant human PKAC-alpha assessed as dissociation half life preincubated for 1 hr followed by photoluminescent probe addition by time-gated luminescence intensity based assay
[5] = target: T1, cAMP-dependent protein kinase catalytic subunit alpha; assay: Displacement of ARC-1063 fluorescent probe from recombinant human PKAC-alpha assessed as binding constant (kon) preincubated for 1 hr followed by photoluminescent probe addition by time-gated luminescence intensity based assay
[6] = target: T1, cAMP-dependent protein kinase catalytic subunit alpha; assay: Inhibition of recombinant human PKAC-alpha assessed as residual activity at 0.1 uM in presence of ATP by radiometric filter-binding assay relative to control
[7] = target: Rho-associated protein kinase 2 (Homo sapiens) (UniProt O75116); assay: Inhibition of recombinant human GST-tagged ROCK-2 catalytic domain (1 to 552 residues) assessed as residual activity at 0.1 uM in presence of ATP by radiometric filter-binding assay relative to control
[8] = target: RAC-alpha serine/threonine-protein kinase (Homo sapiens) (UniProt P31749); assay: Inhibition of human PKBalpha assessed as residual activity at 0.1 uM in presence of ATP by radiometric filter-binding assay relative to control
[9] = target: RAC-beta serine/threonine-protein kinase (Homo sapiens) (UniProt P31751); assay: Inhibition of human PKB-beta assessed as residual activity at 0.1 uM in presence of ATP by radiometric filter-binding assay relative to control
[10] = target: Ribosomal protein S6 kinase alpha-5 (Homo sapiens) (UniProt O75582); assay: Inhibition of N-terminal 6His-tagged recombinant human spiked MSK1 (2 to end residues) assessed as residual activity relative to control
[11] = organism: Homo sapiens; assay: Selectivity index, ratio of Kd for N-terminal 6His-tagged active recombinant human spiked Akt3 S472D mutant (117 to end residues) to Kd for human recombinant PKACalpha
[12] = target: T2, Aurora kinase A (Homo sapiens) (UniProt O14965); assay: Inhibition of N-terminal 6His-tagged active recombinant full length human Aurora A-mediated phosphorylation assessed as residual activity at 100 nM relative to control
T2 sequence (whole entry): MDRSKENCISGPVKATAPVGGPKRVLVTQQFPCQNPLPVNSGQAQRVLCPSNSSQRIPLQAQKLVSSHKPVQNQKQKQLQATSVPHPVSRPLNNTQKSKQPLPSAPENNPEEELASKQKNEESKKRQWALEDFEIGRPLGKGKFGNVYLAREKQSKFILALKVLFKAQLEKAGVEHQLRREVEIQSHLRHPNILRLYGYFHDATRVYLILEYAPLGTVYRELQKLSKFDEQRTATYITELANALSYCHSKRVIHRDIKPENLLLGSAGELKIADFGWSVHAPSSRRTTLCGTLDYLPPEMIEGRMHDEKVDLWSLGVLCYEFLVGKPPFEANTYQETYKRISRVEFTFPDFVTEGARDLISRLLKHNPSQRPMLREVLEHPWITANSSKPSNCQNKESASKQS

[13] = target: Aurora kinase B (Homo sapiens) (UniProt Q96GD4); assay: Inhibition of N-terminal 6His-tagged active recombinant full length human Aurora B-mediated phosphorylation assessed as residual activity at 100 nM relative to control
[14] = target: T1, cAMP-dependent protein kinase catalytic subunit alpha; assay: Inhibition of ARC-1063 fluorescent probe binding to recombinant human PKAC-alpha incubated for 22 hrs by time-gated luminescence intensity based displacement assay
[15] = target: T1, cAMP-dependent protein kinase catalytic subunit alpha; assay: Irreversible inhibition of ARC-1063 fluorescent probe binding to recombinant human PKAC-alpha incubated for 22 hrs followed by probe addition at 20 nM and further incubated for 1 hr by time-gated luminescence intensity based displacement assay
[16] = target: T1, cAMP-dependent protein kinase catalytic subunit alpha; assay: Binding affinity to human recombinant PKAC-alpha assessed as reduction in TGLI signal at 10 uM pretreated with compound followed by ARC-1063 fluorescent probe addition by time-gated luminescence intensity based displacement assay; conditions: time 60-480 min, TDE = time-dependent effect
[17] = target: T1, cAMP-dependent protein kinase catalytic subunit alpha; assay: Binding affinity to human recombinant PKAC-alpha assessed as inactivation constant incubated for 1 hr by time-gated luminescence intensity based displacement assay
[18] = target: T1, cAMP-dependent protein kinase catalytic subunit alpha; assay: Binding affinity to human recombinant PKAC-alpha assessed as inactivation constant measured upto 60 mins by Western blot analysis
[19] = target: T1, cAMP-dependent protein kinase catalytic subunit alpha; assay: Covalent inhibition of human recombinant PKAC-alpha assessed as inhibition constant
[20] = target: T1, cAMP-dependent protein kinase catalytic subunit alpha; assay: Binding affinity to recombinant human active PKAC-alpha assessed as compound-protein adduct formation by measuring formation of three bands at 1.5 uM incubated for 1 hr by 5-TAMRA dye based immunostaining analysis
[21] = target: T1, cAMP-dependent protein kinase catalytic subunit alpha; assay: Binding affinity to recombinant human spiked PKAC-alpha in human U2OS cell lysates assessed as covalent compound-protein adduct formation at 1.5 uM incubated for 1 hr by 5-TAMRA dye based Western blot analysis; format: subcellular
[22] = target: T1, cAMP-dependent protein kinase catalytic subunit alpha; assay: Binding affinity to recombinant human spiked PKAC-alpha in human U2OS cell lysates assessed as covalent compound-protein adduct formation at 1.5 uM incubated for 1 hr in presence of PK inhibitor, staurosporin by 5-TAMRA dye based Western blot analysis; format: subcellular
[23] = target: T1, cAMP-dependent protein kinase catalytic subunit alpha; assay: Binding affinity to recombinant human spiked PKAC-alpha in human U2OS cell lysates assessed as covalent compound-protein adduct formation at 1.5 uM incubated for 1 hr in presence of GSH by 5-TAMRA dye based Western blot analysis; format: subcellular
[24] = target: T1, cAMP-dependent protein kinase catalytic subunit alpha; assay: Binding affinity to recombinant human spiked PKAC-alpha in human HeLa cells assessed as covalent compound-protein adduct formation by measuring multiple fluorescent band formation at 1.5 uM incubated for 1 hr by 5-TAMRA dye based Western blot analysis; format: cell-based
[25] = target: T1, cAMP-dependent protein kinase catalytic subunit alpha; assay: Binding affinity to recombinant human spiked PKAC-alpha in human HeLa cells assessed as covalent compound-protein adduct formation by measuring multiple fluorescent band formation at 150 nM incubated for 1 hr by 5-TAMRA dye based Western blot analysis; format: cell-based
[26] = target: T1, cAMP-dependent protein kinase catalytic subunit alpha; assay: Binding affinity to recombinant human spiked PKAC-alpha in human PC-3 cell lysates assessed as covalent compound-protein adduct formation at 15 nM incubated for 1 hr by 5-TAMRA dye based Western blot analysis; format: subcellular
[27] = target: cAMP-dependent protein kinase catalytic subunit beta (Homo sapiens) (UniProt P22694); assay: Binding affinity to recombinant full length human spiked PKAC-beta in human PC-3 cell lysates assessed as irreversible compound-protein adduct formation at 150 nM incubated for 1 hr by 5-TAMRA dye based Western blot analysis; format: subcellular
[28] = tested on: RAC-gamma serine/threonine-protein kinase (Homo sapiens), Q9Y243 [S472D]; assay: (§1) Binding affinity to N-terminal 6His-tagged active recombinant human spiked Akt3 S472D mutant (117 to end residues) in human PC-3 cell lysates assessed as irreversible compound-protein adduct formation at 150 nM incubated for 1 hr by 5-TAMRA dye based Western blot analysis; format: subcellular
[29] = target: Ribosomal protein S6 kinase alpha-5 (Homo sapiens) (UniProt O75582); assay: Binding affinity to N-terminal 6His-tagged recombinant human spiked MSK1 (2 to end residues) in human PC-3 cell lysates assessed as irreversible compound-protein adduct formation at 150 nM incubated for 1 hr by 5-TAMRA dye based Western blot analysis; format: subcellular
[30] = target: T2, Aurora kinase A (Homo sapiens); assay: (§2) Binding affinity to N-terminal 6His-tagged active recombinant full length human spiked Aurora A in human PC-3 cell lysates assessed as irreversible compound-protein adduct formation at 150 nM incubated for 1 hr by 5-TAMRA dye based Western blot analysis; format: subcellular
[31] = target: cAMP-dependent protein kinase catalytic subunit beta (Homo sapiens) (UniProt P22694); assay: Binding affinity to recombinant full length human spiked PKAC-beta in human PC-3 cell lysates assessed as irreversible compound-protein adduct formation by measuring remaining activity at 150 nM measured after 1 hr by […] immunostaining based Western blot analysis; format: subcellular
[32] = tested on: RAC-gamma serine/threonine-protein kinase (Homo sapiens), Q9Y243 [S472D]; assay: as §1, with “formation by measuring remaining activity” for “formation”, “Akt3 antibody immunostaining” for “5-TAMRA dye”; format: subcellular
[33] = target: T2, Aurora kinase A (Homo sapiens); assay: as §2, with “formation by measuring remaining activity” for “formation”, “Aurora A antibody immunostaining” for “5-TAMRA dye”; format: subcellular

RAC-gamma serine/threonine-protein kinase (Homo sapiens), Q9Y243 [S472D], sequence (Q9Y243 whole entry S472D): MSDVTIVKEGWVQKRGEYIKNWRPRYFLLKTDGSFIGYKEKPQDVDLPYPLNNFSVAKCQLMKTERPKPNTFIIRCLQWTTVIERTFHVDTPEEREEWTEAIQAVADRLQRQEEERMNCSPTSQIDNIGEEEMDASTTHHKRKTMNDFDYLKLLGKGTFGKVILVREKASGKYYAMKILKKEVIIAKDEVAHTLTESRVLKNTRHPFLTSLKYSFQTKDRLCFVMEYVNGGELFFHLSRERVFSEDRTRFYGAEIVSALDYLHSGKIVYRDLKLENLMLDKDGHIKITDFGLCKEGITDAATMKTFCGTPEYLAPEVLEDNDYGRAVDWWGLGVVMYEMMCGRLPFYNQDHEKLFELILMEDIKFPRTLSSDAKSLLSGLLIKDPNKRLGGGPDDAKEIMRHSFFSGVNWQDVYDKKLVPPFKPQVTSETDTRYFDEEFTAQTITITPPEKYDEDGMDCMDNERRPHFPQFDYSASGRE
Ribosomal protein S6 kinase alpha-5 (Homo sapiens), sequence (O75582 whole entry, looked up): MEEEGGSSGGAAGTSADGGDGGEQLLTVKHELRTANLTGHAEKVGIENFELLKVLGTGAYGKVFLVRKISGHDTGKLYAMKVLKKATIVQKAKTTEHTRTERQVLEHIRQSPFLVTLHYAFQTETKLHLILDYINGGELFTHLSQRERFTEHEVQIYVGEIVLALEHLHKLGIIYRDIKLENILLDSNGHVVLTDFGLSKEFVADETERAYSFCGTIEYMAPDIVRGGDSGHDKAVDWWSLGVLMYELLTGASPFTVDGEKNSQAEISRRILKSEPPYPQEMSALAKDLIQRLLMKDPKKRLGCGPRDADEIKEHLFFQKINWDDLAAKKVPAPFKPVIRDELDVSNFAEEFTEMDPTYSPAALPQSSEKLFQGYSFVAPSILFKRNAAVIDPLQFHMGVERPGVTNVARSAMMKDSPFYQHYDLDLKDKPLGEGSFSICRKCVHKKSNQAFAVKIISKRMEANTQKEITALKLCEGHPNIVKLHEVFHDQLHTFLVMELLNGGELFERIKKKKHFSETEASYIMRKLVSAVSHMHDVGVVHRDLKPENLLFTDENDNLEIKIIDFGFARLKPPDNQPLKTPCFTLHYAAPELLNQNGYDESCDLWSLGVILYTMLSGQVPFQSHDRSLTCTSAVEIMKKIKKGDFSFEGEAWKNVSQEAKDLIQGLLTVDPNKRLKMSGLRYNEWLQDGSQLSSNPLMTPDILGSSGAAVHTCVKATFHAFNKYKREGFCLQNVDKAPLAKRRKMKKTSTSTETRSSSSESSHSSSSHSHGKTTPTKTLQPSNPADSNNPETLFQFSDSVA
RAC-alpha serine/threonine-protein kinase (Homo sapiens), sequence (P31749 whole entry): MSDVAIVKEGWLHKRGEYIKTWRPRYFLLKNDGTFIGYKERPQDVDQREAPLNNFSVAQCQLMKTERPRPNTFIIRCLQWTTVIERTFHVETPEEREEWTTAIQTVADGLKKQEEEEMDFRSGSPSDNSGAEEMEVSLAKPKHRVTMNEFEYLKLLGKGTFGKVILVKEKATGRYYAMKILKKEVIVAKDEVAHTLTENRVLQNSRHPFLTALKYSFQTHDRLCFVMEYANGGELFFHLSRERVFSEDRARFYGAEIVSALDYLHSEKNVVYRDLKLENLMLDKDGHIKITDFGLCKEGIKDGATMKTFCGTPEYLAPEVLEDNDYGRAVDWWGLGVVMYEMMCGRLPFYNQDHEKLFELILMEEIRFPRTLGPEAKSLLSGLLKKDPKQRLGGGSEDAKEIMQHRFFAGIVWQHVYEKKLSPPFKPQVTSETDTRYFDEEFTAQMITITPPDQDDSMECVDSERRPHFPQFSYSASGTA
RAC-beta serine/threonine-protein kinase (Homo sapiens), sequence (P31751 whole entry): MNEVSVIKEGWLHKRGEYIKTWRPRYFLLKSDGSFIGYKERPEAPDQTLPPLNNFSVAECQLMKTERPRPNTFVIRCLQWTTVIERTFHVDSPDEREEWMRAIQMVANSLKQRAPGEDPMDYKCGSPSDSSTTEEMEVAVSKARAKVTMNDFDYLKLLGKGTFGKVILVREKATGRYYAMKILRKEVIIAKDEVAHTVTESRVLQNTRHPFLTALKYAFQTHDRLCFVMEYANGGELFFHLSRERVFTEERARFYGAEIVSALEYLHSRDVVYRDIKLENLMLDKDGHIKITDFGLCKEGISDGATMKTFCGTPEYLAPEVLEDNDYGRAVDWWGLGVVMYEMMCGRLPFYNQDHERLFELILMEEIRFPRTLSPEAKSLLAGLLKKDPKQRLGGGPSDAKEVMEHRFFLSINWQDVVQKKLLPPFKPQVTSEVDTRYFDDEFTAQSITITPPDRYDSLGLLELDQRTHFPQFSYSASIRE
Rho-associated protein kinase 2 (Homo sapiens), sequence (O75116 whole entry, looked up, the tested form may be a part): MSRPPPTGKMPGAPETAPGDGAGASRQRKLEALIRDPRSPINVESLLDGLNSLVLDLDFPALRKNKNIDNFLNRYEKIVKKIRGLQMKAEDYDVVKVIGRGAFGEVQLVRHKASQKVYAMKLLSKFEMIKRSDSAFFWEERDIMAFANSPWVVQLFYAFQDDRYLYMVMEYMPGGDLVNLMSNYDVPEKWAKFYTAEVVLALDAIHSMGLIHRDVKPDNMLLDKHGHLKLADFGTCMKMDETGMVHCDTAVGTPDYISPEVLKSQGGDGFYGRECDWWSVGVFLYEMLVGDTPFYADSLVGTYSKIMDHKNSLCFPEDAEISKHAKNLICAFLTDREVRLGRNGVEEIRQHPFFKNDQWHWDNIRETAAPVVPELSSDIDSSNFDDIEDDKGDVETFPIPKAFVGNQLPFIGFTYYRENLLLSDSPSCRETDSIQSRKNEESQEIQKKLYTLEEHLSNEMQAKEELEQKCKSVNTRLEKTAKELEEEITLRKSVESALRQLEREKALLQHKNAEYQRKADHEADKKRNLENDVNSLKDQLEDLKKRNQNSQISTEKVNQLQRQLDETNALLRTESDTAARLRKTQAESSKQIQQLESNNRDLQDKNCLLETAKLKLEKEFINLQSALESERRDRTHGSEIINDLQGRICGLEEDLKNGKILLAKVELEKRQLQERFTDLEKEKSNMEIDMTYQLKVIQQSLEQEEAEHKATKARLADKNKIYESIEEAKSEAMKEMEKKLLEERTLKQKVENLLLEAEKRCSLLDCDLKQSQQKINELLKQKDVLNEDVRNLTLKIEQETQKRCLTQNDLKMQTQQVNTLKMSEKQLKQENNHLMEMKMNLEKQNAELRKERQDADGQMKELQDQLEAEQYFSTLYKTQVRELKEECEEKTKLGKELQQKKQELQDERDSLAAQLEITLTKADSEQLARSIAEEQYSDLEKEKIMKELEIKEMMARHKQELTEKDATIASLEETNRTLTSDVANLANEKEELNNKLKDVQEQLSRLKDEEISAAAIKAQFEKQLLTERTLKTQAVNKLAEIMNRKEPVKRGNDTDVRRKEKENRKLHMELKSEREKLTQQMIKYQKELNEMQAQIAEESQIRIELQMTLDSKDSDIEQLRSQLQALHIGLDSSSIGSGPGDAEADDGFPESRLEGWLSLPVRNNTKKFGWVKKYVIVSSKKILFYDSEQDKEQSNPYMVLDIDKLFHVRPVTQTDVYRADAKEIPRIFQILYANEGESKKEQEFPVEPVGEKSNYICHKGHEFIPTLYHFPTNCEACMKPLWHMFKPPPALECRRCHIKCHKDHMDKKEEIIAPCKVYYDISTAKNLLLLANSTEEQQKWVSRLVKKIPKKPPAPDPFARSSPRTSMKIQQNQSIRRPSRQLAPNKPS
Aurora kinase B (Homo sapiens), sequence (Q96GD4 whole entry): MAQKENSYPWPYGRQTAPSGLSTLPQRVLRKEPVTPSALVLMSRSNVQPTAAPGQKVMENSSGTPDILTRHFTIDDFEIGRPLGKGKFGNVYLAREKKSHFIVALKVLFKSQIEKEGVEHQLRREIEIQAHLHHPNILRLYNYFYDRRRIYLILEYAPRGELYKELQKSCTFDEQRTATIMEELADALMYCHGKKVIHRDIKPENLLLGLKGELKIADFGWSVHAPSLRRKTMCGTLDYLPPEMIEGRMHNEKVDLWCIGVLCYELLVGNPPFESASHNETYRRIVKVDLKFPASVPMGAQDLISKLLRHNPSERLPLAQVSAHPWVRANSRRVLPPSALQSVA

With NC(=O)CF [MONOFLUOROACETAMIDE] the half-life at 150 µM [1] was greater than 70 h.
Compound CC[C@H](C)[C@H](NC(=O)CCC(=O)N[C@@H](CCCCNC(=O)[C@@H](CCCNC(=N)N)NC(=O)CCCCCCCC(=O)N1CCN(c2ncnc3[nH]ccc23)CC1)C(=O)N[C@H](CCCNC(=N)N)C(=O)N[C@H](CCCNC(=N)N)C(N)=O)C(=O)NCC(C)=O has an IC50 [2] of 24 nM, a Kd [3] of 0.019 nM and a T1/2 [4] of 4.5 min. For the same compound, the K [5] was 1.4 10^8/M/s, the Activity [6] was 2% and the Activity [7] was 8%. For the same compound, the Activity [8] was 8%, the Activity [9] was 9% and the Activity [10] was 21%. It also gave a Ratio [11] of 200, an Activity [12] of 102% and an Activity [13] of 93%.
N=C(N)NCCC[C@@H](NC(=O)CCCCCNC(=O)[C@@H](CCCNC(=N)N)NC(=O)CCCCCCCC(=O)N1CCN(c2ncnc3[nH]ccc23)CC1)C(N)=O gave an IC50 [2] of 400 nM, an IC50 [14] of 500 nM and an IC50 [15] of 5300 nM.
For CC[C@H](C)[C@H](NC(=O)CCC(=O)N[C@@H](CCCCNC(=O)[C@@H](CCCNC(=N)N)NC(=O)CCCCCCCC(=O)N1CCN(c2ncnc3[nH]ccc23)CC1)C(=O)N[C@H](CCCNC(=N)N)C(=O)N[C@H](CCCNC(=N)N)C(=O)N[C@H](CCCNC(=N)N)C(N)=O)C(=O)NCC(=O)CF, the Activity [16] was “Tde”, the Kinact [17] was 5.1 10^-4/s and the Kinact [18] was 4.2 10^-4/s. It also gave a Ki [19] of 0.0068 nM.
Work on CC[C@H](C)[C@H](NC(=O)CCC(=O)N[C@@H](CCCCNC(=O)[C@@H](CCCNC(=N)N)NC(=O)CCCCCCCC(=O)N1CCN(c2ncnc3[nH]ccc23)CC1)C(=O)N[C@H](CCCNC(=N)N)C(=O)N[C@H](CCCNC(=N)N)C(=O)N[C@H](CCCNC(=N)N)C(N)=O)C(=O)NCC(C)=O yielded an IC50 [2] of 5.6 nM, a Kd [3] of 0.0049 nM and a T1/2 [4] of 11.1 min. The K [5] was 2.2 10^8/M/s.
With CC[C@H](C)[C@H](NC(=O)CCC(=O)N[C@@H](CCCCNC(=O)[C@@H](CCCNC(=N)N)NC(=O)CCCCCCCC(=O)N1CCN(c2ncnc3[nH]ccc23)CC1)C(=O)N[C@H](CCCNC(=N)N)C(=O)N[C@H](CCCNC(=N)N)C(=O)N[C@H](CCCCNC(=O)c1ccc(-c2c3ccc(=[N+](C)C)cc-3oc3cc(N(C)C)ccc23)c(C(=O)O)c1)C(N)=O)C(=O)NCC(=O)CF the Activity [20] was “Active”, the Activity [21] was “Active” and the Activity [22] was “Active”. The Activity [23] was “Active”, the Activity [24] was “Active” and the Activity [25] was “Active”. For the same compound, the Activity [26] was “Active”, the Activity [27] was “Active” and the Activity [28] was “Active”. The Activity [29] was “Active”, the Activity [30] was “Active” and the Activity [31] was “Active”. For the same compound, the Activity [32] was “Active” and the Activity [33] was “Active”.
